Entries after “also recorded” stand apart in the source; their conditions may differ. Bridge positions count the residues as written; N and C are the ends. Square brackets hold non-standard residues; d marks the D form. Peptide text beside a SMILES is read from it. hArg = N=C(N)NCCCC[C@H](N)C(=O)O; Mpa = O=C(O)CCS
Legend:
[1] = Plasma inflammatory markers after PCI (ELISA); assay type: in vivo, human
Procedure: Patients (n=45) undergoing PCI were enrolled. The study was approved by the IRB and all patients signed informed consent. Exclusion criteria included higher risk clinical scenarios mandating, according to institutional clinical practice, the use of GP IIb/IIIa antagonists (i.e., acute ST elevation MI or non q-wave MI with CPK elevation, pain at rest with EKG changes <24 hours, visible thrombus, pain refractory to heparin), pre-procedural GP IIb/IIIa inhibitor treatment, restenotic and graft lesions, and standard conditions excluding GP IIb/IIIa inhibitor use.
All patients received aspirin and intravenous heparin (50-70U/kg) monitored by activated clotting time (ACT) during the procedure. Patients were administered either no GP IIb/IIIa inhibitor, eptifibatide (180 μg/kg double bolus followed by 2 μg/kg/min for 16 h), or abciximab (0.25 mg/kg bolus intravenously followed by 0.125 μg/kg/min for 12 h) at the discretion of the primary operator. Platelet function was monitored using PPACK-anticoagulated blood and the Accumetrics RPFA device at baseline and 10 min post-final bolus. Interventionalists were blinded to RPFA results and not permitted to modify GP IIb-IIIa inhibitor dosing. Post-PCI, patients received clopidogrel (300 mg PO) followed by 75 mg daily.
Venous blood samples were collected prior to (t=0) and at 30 minutes, 2 hours, and 24 hours after the angioplasty wire was advanced across the lesion. Blood was collected into 10 mL tubes with either EDTA (for sCD 154 analysis) or PPACK (for all other analyses) anticoagulant, centrifuged at 4° C., and stored at −80° C. until analysis.
Inflammatory markers in plasma samples were quantified by commercially available ELISA for sCD154 (Alexis BioChemical) with modification (12), RANTES, IL6, sICAM-1 (BioSource), and CRP (Alpha Diagnostic International).
Primary endpoint data are presented as mean±SE. Data were log transformed to achieve a normal distribution verified by Kolmogorov-Smirnov test for normality. Statistical comparisons were performed using two-way ANOVA to determine a difference in mean values over time between the 3 groups. Pair-wise comparisons were performed when the ANOVA false-positive rate was ≦5%. A Bonferroni corrective for 3 pair-wise comparisons was applied, in which the p-value of […] was used to signify a false-positive rate of 5%. For ANOVA with a false-positive rate of ≧5%, the pair-wise comparisons were reported to be statistically nonsignificant (NS). Baseline and procedural characteristics data were analyzed with standard one way ANOVA for continuous data in more than 3 groups and a student's t-test for comparison of 2 groups. A Mann-Whitney Rank Sum test was used for nominal data. Statistical significance was assumed if the false positive rate was ≦5%.

platelets = test: Platelet surface expression of CD154 and release of thrombospondin; assay type: cell-based, human
platelets in whole blood = test: Perfusion chamber: thrombus formation of whole blood on protein-coated surface under shear; assay type: cell-based, human
Procedure: The effect of CD154 on the aggregation of platelets under conditions of high shear stress were evaluated. Recombinant CD154 (rCD154 or rCD40L) was compared to fibrinogen (Fg) in its ability to form thrombi as well as in combination with Fg. Controls also included CD154 in which the KGD eptifibatide-recognition sequence was mutated to KGE (CD154(KGE) or CD40L(KGE)). Briefly, a silicone gasket with a flow path height of 127 μm was placed between a flat perfusion chamber (Glycotech, Rockville, Md.) and a protein-coated petri dish as described (Andre, P. et al., Nature Medicine, 8:247-252 (2002)). Petri dishes were coated with rCD40L, Fibrinogen (Fg), rCD40L+Fg, mutated CD40L (CD40L(KGE)), CD40L(KGE)+Fg. In one experiment, the glycoprotein IIb/IIIa antagonist eptifibatide (2 μM) was incubated with whole blood before perfusion over the rCD40L-coated surface. When Fg was coated with either rCD40L or CD40L(KGE), each molecule was deposited at 25 μg/cm^2. Coating of the proteins was performed using the spray method in which 25 μl of a 1 mg/ml protein solution is coated onto the plastic with a retouching air brush resulting in a concentration of 25 μg/cm^2 (Houdijk, WP et al., J. Clin. Invest., 75:531-540 (1985)). Human peripheral blood was collected on PPACK (40 μmol/L final concentration) and perfused for 4 minutes over the protein-coated surface. Shear rates of 1500-1600/s, 500-600/s and 100-200/s, were generated with flow rates of ˜0.6, 0.25 and 0.075 ml/min, respectively. Measurements of thrombotic deposits were performed using the Simple PCI software image analysis program (Technical Instrument, Burlingame, Calif.).

washed platelets = test: Fibrinogen binding to washed platelets and microparticle generation (flow cytometry); assay type: cell-based, human
Procedure: Venous blood was collected from normal donors into ACD buffer (85 mM Sodium Citrate, […] and 71 mM Citric acid) containing 0.05 μg/ml prostaglandin 12(PGI2). Blood was later centrifuged at 160×g for 20 minutes to collect platelet rich plasma (PRP). PRP was centrifuged at 1100×g for 10 minutes to sediment platelets. Platelets were washed twice with CGS buffer (13 mM trisodium citrate, 120 mM sodium chloride and 30 mM dextrose pH 7.0). The first wash had 0.03 μg/ml PGI2. Washed platelets were finally suspended in Tyrodes-Hepes buffer (12 mM sodium bi-carbonate, 138 mM sodium chloride, 5.5 mM glucose, 2.9 mM potassium chloride, 10 mM Hepes, 1 mM calcium chloride and 1 mM magnesium chloride, pH 7.4).
Washed platelets (1×10^7/ml) were incubated for 60 minutes at 37° C. with 2 μM soluble CD154 (sCD154) or mutant sCD154 (D117E mutation in the KGD sequence) in the presence or absence of eptifibatide or anti-CD40 antibody. All incubations had 100 nM Alexa-Fibrinogen (Molecular probes, Eugene, Oreg.). Samples were diluted 10 fold with stain buffer (BD Pharmingen, Los Angeles, Calif.) after incubation and analyzed by flow cytometry (FACSort, BD, San Jose, Calif.).

For `N=C(N)NCCCC[C@@H]1NC(=O)CCSSC[C@@H](C(N)=O)NC(=O)[C@@H]2CCCN2C(=O)[C@H](Cc2c[nH]c3ccccc23)NC(=O)[C@H](CC(=O)O)NC(=O)CNC1=O` [eptifibatide] ([Mpa][hArg]GDWPC-NH2; disulfide 1-7), the “rise of sICAM-1 and IL-6 after PCI” value ([1]; 2-24 hours after PCI, not statistically significant) was “lowest level of rise”, the “plasma sCD154 levels after PCI” value ([1]; 30 minutes, 2 hours, 24 hours versus baseline) was “significantly lower than baseline” and the “plasma RANTES levels after PCI” value ([1]; versus baseline) was “significant reductions”. The “thrombin- or TRAP-induced surface expression of CD154” value (platelets) was “did not affect; also recorded: unaffected”, the “TRAP-induced release of thrombospondin” value (platelets; data not shown) was “did not affect; also recorded: without affecting” and the “Binding of platelets to the rCD40L” value (platelets in whole blood; eptifibatide 2 μM incubated with whole blood) was “inhibited”. For the same molecule, the “effect on sCD154-induced fibrinogen binding and microparticle generation” value (washed platelets; 2 μM sCD154, eptifibatide 2.5 μM) was “inhibited”.

B1: rsCD154: bacterially expressed recombinant human soluble CD154 (108 a.a-261 a.a.), 18-kDa protein (protein)
chain: ENSFEMQKGDQNPQIAAHVISEASSKTTSVLQWAEKGYYTMSNNLVTLENGKQLTVKRQGLYYIYAQVTFCSNREASSQAPFIASLCLKSPGRFERILLRAANTHSSAKPCGQQSIHLGGVFELQPGASVFVNVTDPSQVSHGTGFTSFGLLKL
For B1, the “aggregation process (mean thrombus area) on coated surface versus Fg” value (platelets in whole blood; shear rate of 1500-1600/s, 25 μg/cm^2 coating) was “significantly enhances” and the “fibrinogen binding to platelets and generation of microparticles” value (washed platelets; 2 μM protein, 60 minutes at 37° C., FIG. 10) was “induced”.
